Assays:
[1] = test system: HCT116 tumours; assay: Mouse xenograft tumour growth delay (CDEPT); type: in vivo, NMRI nu/nu mice; settings: prodrug alone, 15 mg/kg i.p., 5 consecutive days
Procedure: Human colorectal HCT116 carcinoma cells were grown in DMEM medium supplemented with 10% FBS, trypsinized and injected subcutaneously in 100 μl PBS/ . . . % matrigel at a concentration of 5.10^6 cells in the abdominal flank of adult NMRI nu/nu mice. As soon as tumours were palpable, tumour volumes were determined three times per week by measuring three orthogonal diameters using calipers. Volumes were calculated according to the formula V=A×B×C×/6. All experiments were conducted in accordance with local institutional guidelines of the University of Leuven, approved by the animal ethics committee and procedures were according to the guidelines defined by the UKCCCR (12). […] Tumour growth delay was determined for each individual tumour within the different groups as the time necessary to reach three times their initial volume at the start of the treatment. […]
Since strains E1 and N1 express stably-integrated NTR under the regulatory control of a strong promoter without inclusion of any antibiotic resistance gene, it was next determined whether administration of these clinically-applicable strains in combination with prodrug administration to tumour-bearing animals would result in anti-tumour efficacy. It was first evaluated whether inactivation of pyrE affected the tumour-colonizing capacity of systemically administered spores. […]

[2] = test system: HCT116 tumours; assay: Mouse xenograft tumour growth delay with CB1954; type: in vivo, NMRI nu/nu mice (human colorectal HCT116 carcinoma)
Procedure: Human colorectal HCT116 carcinoma cells were grown in DMEM medium supplemented with 10% FBS, trypsinized and injected subcutaneously in 100 μl PBS/ . . . % matrigel at a concentration of 5.10^6 cells in the abdominal flank of adult NMRI nu/nu mice. As soon as tumours were palpable, tumour volumes were determined three times per week by measuring three orthogonal diameters using calipers. Volumes were calculated according to the formula V=A×B×C×/6. All experiments were conducted in accordance with local institutional guidelines of the University of Leuven, approved by the animal ethics committee and procedures were according to the guidelines defined by the UKCCCR (12). Treatment was initiated when tumours reached a volume of ˜250 mm^3. Five days post spore injection (5.10^7 cfu/100 μl), sham or prodrug treatment was started. CB1954 was prepared as described previously (13) and administered intraperitoneally (i.p.) at a concentration of 15 mg/kg for five consecutive days. At the end of the follow-up period, tumours and normal tissues were excised, ground and serially diluted to determine colonization levels (14). Tumour growth delay was determined for each individual tumour within the different groups as the time necessary to reach three times their initial volume at the start of the treatment. One-way ANOVA with a Tukey's posttest was used to determine statistical significance between the different growth curves.
Since strains E1 and N1 express stably-integrated NTR under the regulatory control of a strong promoter without inclusion of any antibiotic resistance gene, it was next determined whether administration of these clinically-applicable strains in combination with prodrug administration to tumour-bearing animals would result in anti-tumour efficacy. It was first evaluated whether inactivation of pyrE affected the tumour-colonizing capacity of systemically administered spores. Mice bearing subcutaneously transplanted HCT116 tumours were injected and tumour colonization tested seven days later. […] On average 10^9 cfu were found per gram of tumour tissue. Colonization was also confirmed by gram staining. In tumours, C. sporogenes vegetative cells are visible as purple, gram-positive rods (FIG. 3 C). As expected, C. sporogenes vegetative cells could not be detected in any of the normal tissues investigated. […] Spores were collected, quantified and intravenously administered at a concentration of 5.10×10^7 per animal when tumours reached a volume of ˜250 mm^3, followed five days later by sham or prodrug administration. […] In all cases, strain specific signals could be detected thereby confirming stability of the integrated construct.

[3] = test system: E. coli NfnB variant N71S/F124K; settings: Searle et al., 2004 and Race et al., 2007, cited from earlier work
[4] = test system: HinNTR, NTR from Haemophilus influenzae; settings: Theys et al., 2006, cited from earlier work

Q: What does the source list for `NC(=O)c1cc(N2CC2)c([N+](=O)[O-])cc1[N+](=O)[O-]` [CB1954, 5-(aziridin-1-yl)-2,4-dinitrobenzamide]?
A: tumour growth delay [1]: did not result in any effect; tumours completely disappeared, E1/CB1954 group ([2]; CB1954 15 mg/kg i.p. x 5 days + E1 (E. coli NfnB) spores): two out of 16; tumours completely disappeared, N1/CB1954 group ([2]; CB1954 15 mg/kg i.p. x 5 days + N1 (NmeNTR) spores): four out of 16; tumour growth delay, pyrE mutant spores alone or with CB1954 ([2]; CB1954 15 mg/kg i.p. x 5 days, pyrE mutant spores): small growth delay; tumour growth delay, E1 or N1 with CB1954 ([2]; CB1954 15 mg/kg i.p. x 5 days, E1 (NfnB) or N1 (NmeNTR) C. sporogenes spores, most pronounced for N1 (p<0.001, one way ANOVA)): significant growth delay; Kcat ([3]; CB1954): 7.5 S^−1; Km ([3]; read-out: Km^CB1954): 170 µM; Kcat ([4]; CB1954): 56.2 S^−1; Km ([4]; read-out: Km^CB1954): 690 µM
